3 compounds from PMC12845261, “Design, Synthesis, and Biological Evaluation of N-Acyl-Hydrazone-Linked Quinazolinone Derivatives with Antioxidant, Antimicrobial, and Anticancer Potential” (Pharmaceuticals, 2025) can be followed below.

SMILES strings stand for the structures. Values joined by “and” are separate entries in the source; they are usually repeats but may differ in a detail not shown here. Equal values may be shown once.

Data set [1] has as its system P. aeruginosa ATCC 27853. The experiment in a line: Qualitative antimicrobial activity, adapted Kirby-Bauer (inhibition zone). It counts as cell-based. The settings on record: 10 μL of 10 mg/mL DMSO stock, mean ± SD. The procedure: (§1) For the evaluation of antimicrobial activity, the following reference strains were used: S. aureus ATCC 25923, E. faecalis ATCC 29212, E. coli ATCC 25922, P. aeruginosa ATCC 27853 and C. albicans ATCC 10231. The microbial suspensions were prepared at a density of 1.5 × 10^8 CFU/mL, corresponding to the McFarland 0.5 nephelometric standard. These suspensions were obtained from 18–24 h cultures developed on solid media (Mueller-Hinton for bacteria, Sabouraud for yeast). Antimicrobial activity was assessed using an adapted Kirby-Bauer method according to CLSI (Clinical and Laboratory Standards Institute). In addition to the 10 mg/mL stock solutions prepared in DMSO for each compound, a solvent control was used. Each stock solution (10 μL) was distributed in spot on the medium inoculated with the interest strain. After measuring the diameter of the inhibition zone (IZD) around the spot (mm), the results were expressed as the mean ± standard deviation (SD) for each compound tested in duplicate.

The next data set deals with C. albicans ATCC 10231. The data set is described as above. In kind it is cell-based. The settings on record: 10 μL of 10 mg/mL DMSO stock, mean ± SD. The procedure: as §1
In a further data set the test system is E. coli ATCC 25922. Described as above. It counts as cell-based. To be noted: 10 μL of 10 mg/mL DMSO stock, mean ± SD. Here is the method: as §1
Data set [2] has as its system S. aureus ATCC 25923. The data set is described as above. It counts as cell-based. The settings on record: 10 μL of 10 mg/mL DMSO stock, mean ± SD. Here is the method: as §1
The test system of a further data set is E. faecalis ATCC 29212. The description is as above. It counts as cell-based. The settings on record: 10 μL of 10 mg/mL DMSO stock, mean ± SD. The procedure: as §1
The subject of data set [3] is P. aeruginosa ATCC 27853. The data set can be described thus: Microbial adhesion, crystal violet (MICMA). In kind it is cell-based. To be noted: DMSO control 1.25. Here is the method: (§2) For the evaluation of antimicrobial activity, the following reference strains were used: S. aureus ATCC 25923, E. faecalis ATCC 29212, E. coli ATCC 25922, P. aeruginosa ATCC 27853 and C. albicans ATCC 10231.
(§3) Following quantitative analysis of antimicrobial activity, microbial adhesion was evaluated after methanol fixation and violet crystal staining (0.1%). The absorbance of the adhered biomass colored with violet crystal and resuspended in 33% acetic acid was measured at 490 nm.

Data set [4] has as its system S. aureus ATCC 25923. The experiment in a line: Microbial adhesion, crystal violet (MICMA). The settings on record: DMSO control 5. It counts as cell-based. Here is the method: as §2, §3
Data set [5] concerns HT-29 (human colorectal adenocarcinoma). The experiment in a line: Cytotoxicity, MTT assay. It counts as cell-based. The settings on record: 24 h; for Cytotoxic effect (in words): 3.125 to 50 µM. The procedure:
(§4) For the cytotoxicity screening of the N-acyl-hydrazone derivatives, three cell lines were employed: HT-29 (human colorectal adenocarcinoma), A431 (human epidermoid carcinoma), and VERO (non-tumoral African green monkey kidney epithelial cells). All cell lines were obtained from the American Type Culture Collection (ATCC, Manassas, VA, USA), and maintained in appropriate culture media as follows: HT-29 and A431 cells were cultured in Dulbecco’s Modified Eagle Medium (DMEM), while VERO cells were cultured in Minimum Essential Medium (MEM). Both culture media were supplemented with 10% fetal bovine serum (FBS) and 1% penicillin-streptomycin mix, to formulate the complete culture medium. All cell lines were incubated at 37 °C in a humidified atmosphere containing 5% CO2. […] For the cytotoxicity screening, cells were seeded into sterile 96-well plates at an initial density of 1 × 10^4 cells/well and allowed to adhere for 24 h. Subsequently, cells were treated with increasing concentrations (3.125 to 50 µM) of compounds 1a–1f and 2 for 24 h. In parallel, 5-fluorouracil (5-FU, Sigma Aldrich, St. Louis, MO, USA) was included as a reference drug and tested over the same concentration range under identical experimental conditions. […] For the experimental control, culture medium was refreshed at the time of treatment application. […] Louis, MO, USA). Briefly, the culture media were discarded from each well and replaced with a fresh solution of MTT (1 mg/mL). Plates were incubated for 4 h at 37 °C, and the resulting formazan crystals were solubilized with isopropanol. The absorbance was measured at 550 nm using the FlexStation III multimodal reader (Molecular Devices, San Jose, CA, USA). All experiments were performed in triplicate and repeated in three independent assays. Cell viability was calculated as a percentage relative to the untreated control using the formula Cell Viability (%) = (Abs treated/Abs control) × 100. Data were processed using GraphPad Prism 6.0 and presented as mean ± standard deviation (SD). Statistical analysis was performed using one-way analysis of variance (ANOVA) followed by Dunnett’s post hoc test for comparison with the untreated control group.

Data set [6] relates to A431 (human epidermoid carcinoma). The experiment in a line: Cytotoxicity, MTT assay. In kind it is cell-based. To be noted: 24 h; for Cytotoxic effect (in words): 3.125 to 50 µM. The procedure:
as §4
(Tetrazolium dyes change colour on reduction, which living cells bring about.)

Data set [7] can be described thus: Total antioxidant capacity (TAC), DPPH method. The settings on record: 30 min, 517 nm, compound stock 1 mg/mL in methanol, reference ascorbic acid TAC = 100%. The procedure:
The total antioxidant capacity (TAC) was evaluated using diphenyl-1-picrylhydrazyl free radical (DPPH) method. The TAC value was determined in relation to the antioxidant capacity of the reference (ascorbic acid, TAC = 100%). […] The maximum value was recorded for 1c (~45%), followed by 1f and 1a (~43%), while the minimum for 1e (~19%).
In this study, the TAC values were obtained using the most-known DPPH method, in which the intense violet colour of the free radical solution is decreasing. Stock solutions of compounds 1a–1f and 2 were prepared in absolute methanol at a concentration of 1 mg/mL. A stock solution of 2,2-diphenyl-1-picrylhydrazyl free radical was obtained in the same solvent, at a concentration of 2 × 10^−4 M. To 1.8 mL of DPPH solution was added 0.2 mL of each solution of the compounds 1a–1f and 2 and the mixture was left in the dark for 30 min, followed by measurements of the absorbance at 517 nm. The following equation was used to calculate TAC: TAC%=Abs0 min−Abs30 min/Abs0min·100 where Abs0 min refers to the initial absorbance of the DPPH free radical solution, and Abs 30 min refers to the absorbance of the solution of DPPH and the added compound after 30 min. Ascorbic acid was used as a reference.
For orientation: The DPPH test is a chemical assay of radical scavenging.

Data set [8] can be described thus: Qualitative solubility in solvents. It counts as physicochemical. Here is the method:
The 2–5 mL reaction vials were loaded with a magnetic stirrer, 1 mmol of each reactant, acetohydrazide 2 and benzaldehydes, 4–4.5 mL of anhydrous ethanol and 2 drops of glacial acetic acid. Reaction conditions included 5 min of pre-stirring, followed by 40 min of irradiation at 100 °C, with the absorbance level set to “high”. The vials were left overnight in a refrigerator. The precipitates formed were filtered under vacuum, washed with cold ethanol and dried at room temperature. Thin-layer chromatography was performed to analyze and monitor the reaction. The compounds were confirmed by spectroscopic methods (FT-IR, ^1H-NMR and ^13C-NMR spectroscopy and mass spectrometry) and characterized by melting points, solubility and retention factors (Rf).

Take `COc1ccc(/C=N/NC(=O)Cn2c(C)nc3ccccc3c2=O)c(O)c1` [Compound 1d, N′-[(E)-(2-hydroxy-4-methoxyphenyl)methylidene]-2-(2-methyl-4-oxoquinazolin-3(4H)-yl)acetohydrazide]: the “IZD (mm)” value with P. aeruginosa ATCC 27853 [1], in the data set on C. albicans ATCC 10231, in the data set on E. coli ATCC 25922, in the data set on S. aureus ATCC 25923 [2] and in the data set with E. faecalis ATCC 29212 was 0.00 ± 0.00 mm each time. The “MICMA” value with P. aeruginosa ATCC 27853 [3] stood at 1.25 mg/mL; in the data set on S. aureus ATCC 25923 [4], 2.5 mg/mL. Besides, the Cell viability entry is “below 50%” in [5] (at corresponding concentrations (comparison with 5-FU), concentration not named); “below 60%” in data set [6] (at 50 µM and 25 µM). In addition, in [5] (at 50 µM and 25 µM, compared to the control), the “Reduction of cell viability” value is given as “approximately 50%”. Besides, in [7], the “TAC (%)” value is 19.3% and 20.5%. Besides, the Solubility entry in [8] (DMF) is given as “soluble”; in data set [8] (DMSO), “soluble”; in [8] (acetone) it was “soluble”; in [8] (methanol) it was “slightly soluble”; in [8] (water), “insoluble”.
With `COc1ccc(O)c(/C=N/NC(=O)Cn2c(C)nc3ccccc3c2=O)c1` [Compound 1e, N′-[(E)-(2-hydroxy-5-methoxyphenyl)methylidene]-2-(2-methyl-4-oxoquinazolin-3(4H)-yl)acetohydrazide], the “IZD (mm)” value in the data set with P. aeruginosa ATCC 27853 [1], in the data set with C. albicans ATCC 10231, in the data set with E. coli ATCC 25922, with S. aureus ATCC 25923 [2] and in the data set on E. faecalis ATCC 29212 was 0.00 ± 0.00 mm throughout. Further, the “MICMA” value came to 1.25 mg/mL against P. aeruginosa ATCC 27853 [3] and 2.5 mg/mL in the data set on S. aureus ATCC 25923 [4]. The results for the “Cytotoxic effect (in words)” value in data set [5] and in data set [6] were “weaker cytotoxic activity” and “only mild cytotoxicity”, respectively. In data set [6] (at all doses (3.125 to 50 µM)), the Cell viability result is recorded as “above 70%”. In data set [7], the “TAC (%)” value was 19.3%. Also, the Solubility result in data set [8] (DMF) is reported as “soluble”; in data set [8] (DMSO), “soluble”; in data set [8] (methanol), “slightly soluble”; in data set [8] (water) it was “insoluble”.
Take `COc1cc(/C=N/NC(=O)Cn2c(C)nc3ccccc3c2=O)cc([N+](=O)[O-])c1O` [Compound 1f, N′-[(E)-(4-hydroxy-3-methoxy-5-nitrophenyl)methylidene]-2-(2-methyl-4-oxoquinazolin-3(4H)-yl)acetohydrazide]: the “IZD (mm)” value in the data set with P. aeruginosa ATCC 27853 [1], with C. albicans ATCC 10231, in the data set on E. coli ATCC 25922, in the data set with S. aureus ATCC 25923 [2] and in the data set with E. faecalis ATCC 29212 was 0.00 ± 0.00 mm throughout. Besides, the results for the “MICMA” value against P. aeruginosa ATCC 27853 [3] and in the data set on S. aureus ATCC 25923 [4] were 1.25 mg/mL and 2.5 mg/mL, respectively. The results for the “Cytotoxic effect (in words)” value in data set [5] and in data set [6] were “no inhibitory effect” and “did not exert any inhibitory effect”, respectively. For the same compound, the “TAC (%)” value in data set [7] came out at 43.4%. The Solubility result in data set [8] (DMF) is recorded as “soluble”; in [8] (DMSO), “soluble”; in data set [8] (acetone) it was “soluble”; in [8] (methanol), “slightly soluble”; in data set [8] (water), “insoluble”.
